The values below come from patent EP4692071A1, “PHOTOCHROMIC COMPOUND, NAPHTHOL DERIVATIVE, CURABLE COMPOSITION, OPTICAL ARTICLE, LENS, AND EYEGLASS” (TOKUYAMA CORPORATION, priority 2023, dated 2024).

What all share (assay type): physicochemical
Data set [1] in a line: 23°C color optical density (A23): absorbancy difference ε(240)-ε(0) after 240 s light irradiation at 23°C. The note with it: 240 s irradiation; for 23°C color optical density (-): comparative compounds. The protocol:
(§1) • [1] Maximum Absorption Wavelength (λmax): The maximum absorption wavelength after color development, measured using a spectrophotometer (instantaneous multichannel photodetector MCPD3000) manufactured by Otsuka Electronics Co., Ltd. was used as an indicator for the color tone during the color development. • [2] 23°C Color Optical Density (A23): A difference between an absorbancy measured after light irradiation at 23°C for 240 seconds {ε(240)} and an absorbancy without light irradiation ε(0) at the maximum absorption wavelength was used as an indicator for the color optical density. […] 35°C Color Optical Density (A35): A difference between an absorbancy measured after light irradiation at 35°C for 240 seconds {ε(240)} and an absorbancy without light irradiation ε(0) at the first and second absorption wavelengths was used as an indicator for the color optical density. […] 23°C color fading half-life [τ1/2 (sec.)]: A time required for the absorbancy of the sample at the maximum absorption wavelength to decrease to 1/2 of {ε(240)-ε(0)} when the light irradiation is terminated after the light irradiation at 23°C for 240 seconds, was used as an indicator for the color fading speed. The shorter this time, the higher the color fading speed. • [6] Residual rate (A90/A0×100): The obtained photochromic plastic lens was subjected to accelerated deterioration using a xenon weather meter X25 manufactured by Suga Test Instruments Co., Ltd. for 90 hours. Subsequently, the color optical density was evaluated before and after the test, then a color optical density before the test (A0) and a color optical density after the test (A90) were measured, and a ratio (A90/A0) was defined as a residual rate. The residual rate was used as an indicator for a color developing durability. The higher the residual rate, the higher the color developing durability.

Data set [2] in a line: High-temperature color development rate (A35/A23×100), temperature dependency. The note with it: for A35/A23 *100: photochromic laminate prepared by coating method. The gist of the method:
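Color optical density was taken as the absorbance after 240 seconds of light irradiation, ε(240), minus the absorbance without irradiation, ε(0), at the absorption maximum. It was measured at 23°C (A23) and at 35°C (A35), and the ratio A35/A23×100 served as the high-temperature color development rate, showing temperature dependency.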

Data set [3] in a line: 35°C color optical density (A35): absorbancy difference ε(240)-ε(0) after 240 s light irradiation at 35°C. The note with it: 240 s irradiation; for 35°C color optical density (-): comparative compounds. On the procedure:
as §1

Data set [4] can be described thus: Maximum absorption wavelength (λmax) after color development, spectrophotometer MCPD3000. The note with it: for Maximum absorption wavelength: photochromic laminate prepared by coating method, after color development. The gist of the method: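 Read-out: absorbance at λmax, multichannel photodetector spectrophotometer. Colour density = ε(240) − ε(0), 240 s light, 23°C. τ1/2 = time for ε(240) − ε(0) to halve after light off. Residual rate compares density before and after 90 h xenon weathering.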

Data set [5] can be described thus: Residual rate (A90/A0×100) after 90 h accelerated deterioration in xenon weather meter X25, color developing durability. The note with it: for Residual rate (%): xenon weather meter 90 hours; for Residual rate: photochromic laminate prepared by coating method, after 90 h accelerated deterioration. Put shortly:
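Each lens is coloured by 240 s of light at 23°C. Optical density is the irradiated-minus-dark absorbance at the maximum wavelength, and the half-life tracks the post-irradiation fade. A 90 h xenon weather-meter exposure precedes the second density reading used for the residual rate.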

The mark [6] stands for this setting: photochromic laminate by coating method, at the maximum absorption wavelength.
Where [7] appears, read: photochromic laminate by coating method.
Setting [8] is: photochromic laminate by coating method, 40 µm photochromic layer on thiourethane lens, 0.25 mmol compound per 100 g monomers.
Setting [9] is: binder sheet (binder method), measured at 451 nm absorption maximum.
The mark [10] stands for this setting: binder sheet (binder method), measured at 565 nm absorption maximum.
The mark [11] stands for this setting: photochromic laminate by coating method, at 451 nm absorption maximum.
[12] abbreviates: photochromic laminate by coating method, at 566 nm absorption maximum.
Setting [13] is: binder sheet (binder method), urethaneurea resin photochromic layer between polycarbonate sheets, 0.25 mmol per 100 parts by mass resin.
Setting [14] is: cured product by kneading method, 1 mm.
The mark [15] stands for this setting: photochromic cured product by kneading method, 1 mm thick thiourethane, 0.106 mmol per 100 g monomers.
The mark [16] stands for this setting: photochromic laminate by coating method, absorption band at 449 nm.
The mark [17] stands for this setting: photochromic laminate by coating method, absorption band at 569 nm.

The structures appear in SMILES notation. Several values for one entry are separate records, joined by “and”; a condition that tells them apart may be missing. Equal entries are not always repeated.

Regarding `COCCOCCOCCC1(CCOCCOCCOC)c2cc(-c3ccc(OC(C)C)cc3)ccc2-c2c1c1c(c3cc(OC)c(N(C)c4ccc(C(F)(F)F)cc4)cc23)OC(c2ccc(OC)cc2)(c2ccc(OC)cc2)C=C1` [Example 53 Formula (121)], the “A23 (-)” value in data set [1] (setting [6]) was 0.75 - and 0.82 -. Also, in data set [2] (setting [7]), the “A35/A23 *100 (%)” value turned out to be 66%. For the same compound, the “A35 (-)” value in data set [3] (setting [7]) was 0.49 - and 0.54 -. In data set [4] (setting [8]), the “Maximum absorption wavelength (nm)” value is 457 nm and 592 nm. The “Residual rate (%)” value in data set [5] (setting [7]) came to 76%.

`CCC1(CC)CCC2(CC1)c1ccccc1-c1c2c2c(c3cc(OC)c(N(C)c4ccc(C(F)(F)F)cc4)cc13)OC(c1ccc(C)cc1)(c1ccc(OC)cc1)C=C2` (stereo not drawn) [Example 9 Formula (57)]: the “A23 (-)” value is recorded as 0.75 - in data set [1] (setting [9]); 0.88 - in data set [1] (setting [10]); 0.73 - in data set [1] (photochromic laminate by coating method, at the maximum absorption wavelength, at 451 nm absorption maximum); 0.86 - in data set [1] (photochromic laminate by coating method, at the maximum absorption wavelength, at 566 nm absorption maximum). The “A35/A23 *100 (%)” value was 66% in data set [2] (setting [9]), 65% in data set [2] (setting [10]) and 64% in data set [2] (setting [7]). Further, the “A35 (-)” value in data set [3] (setting [9]) is on record as 0.49 -; in data set [3] (setting [10]), 0.56 -; in data set [3] (setting [11]), 0.47 -; in data set [3] (setting [12]), 0.55 -. Besides, the “Maximum absorption wavelength (nm)” value is reported as 451 nm in data set [4] (binder sheet (binder method), urethaneurea resin photochromic layer between polycarbonate sheets, 0.25 mmol per 100 parts by mass resin, measured at 451 nm absorption maximum); 565 nm in data set [4] (binder sheet (binder method), urethaneurea resin photochromic layer between polycarbonate sheets, 0.25 mmol per 100 parts by mass resin, measured at 565 nm absorption maximum); 451 nm in data set [4] (photochromic laminate by coating method, 40 µm photochromic layer on thiourethane lens, 0.25 mmol compound per 100 g monomers, at 451 nm absorption maximum); 566 nm in data set [4] (photochromic laminate by coating method, 40 µm photochromic layer on thiourethane lens, 0.25 mmol compound per 100 g monomers, at 566 nm absorption maximum). The “Residual rate (%)” value in data set [5] (setting [9]) was 95%; in data set [5] (setting [10]), 96%; in data set [5] (setting [11]) it was 83%; in data set [5] (setting [12]), 84%.

In the case of `CCCOc1ccc(C2(c3ccc(OCCC)cc3)C=Cc3c4c(c5cc(N(c6ccc(C)cc6)c6ccc(C)cc6)c(OC)cc5c3O2)-c2ccccc2C4(CCCCOCOC)CCCCOCOC)cc1` [Example 14 Formula (71)], the A23 (-) was 1.93 in data set [1] (binder sheet (binder method)) and 1.89 - in data set [1] (setting [6]). In addition, the “A35/A23 *100 (%)” value in data set [2] (binder sheet (binder method)) and in data set [2] (setting [7]) was 70% in each case. The “A35 (-)” value is on record as 1.36 - in data set [3] (binder sheet (binder method)) and 1.33 - in data set [3] (setting [7]). In addition, the “Maximum absorption wavelength (nm)” value in data set [4] (setting [13]) and in data set [4] (setting [8]) was 521 nm each time. In addition, the “Residual rate (%)” value in data set [5] (binder sheet (binder method)) stood at 94%; in data set [5] (setting [7]), 82%.

`COc1ccc(C2(c3ccc(OC)cc3)C=Cc3c4c(c5cc(N6CCOc7ccccc76)c(OC)cc5c3O2)-c2ccccc2C4(C)C)cc1` [Example 19 Formula (83)]: the “A23 (-)” value in data set [1] (binder sheet (binder method)) was 1.36 -; in data set [1] (setting [14]), 1.37 -; in data set [1] (setting [6]), 1.34 -. The “A35/A23 *100 (%)” value in data set [2] (binder sheet (binder method)), in data set [2] (setting [14]) and in data set [2] (setting [7]) was 67% in each case. Besides, the “A35 (-)” value in data set [3] (binder sheet (binder method)) was 0.91 -; in data set [3] (setting [14]), 0.91 -; in data set [3] (setting [7]), 0.90 -. The “Maximum absorption wavelength (nm)” value is given as 515 nm in data set [4] (setting [13]), 519 nm in data set [4] (setting [15]) and 515 nm in data set [4] (setting [8]). The results for the “Residual rate (%)” value in data set [5] (binder sheet (binder method)), in data set [5] (setting [14]) and in data set [5] (setting [7]) were 91%, 83% and 77%, respectively.

As to `CCCCCCCCC1(CCCCCCCC)c2cc([Si](c3ccccc3)(c3ccccc3)c3ccccc3)ccc2-c2c1c1c(c3cc(OC)c(N(c4ccccc4)c4ccccc4)cc23)OC(c2ccc(OCCC)cc2)(c2ccc(OCCC)cc2)C=C1` [Example 56 Formula (128)], the “A23 (-)” value in data set [1] (setting [6]) is on record as 1.80 -. For the same compound, in data set [2] (setting [7]), the “A35/A23 *100 (%)” value amounted to 69%. For the same compound, the “A35 (-)” value in data set [3] (setting [7]) is reported as 1.24 -. Moreover, the “Maximum absorption wavelength (nm)” value in data set [4] (setting [8]) amounted to 508 nm. Also, in data set [5] (setting [7]), the “Residual rate (%)” value was found to be 81%.

With `COc1ccc(C2(c3ccc(OC)cc3)C=Cc3c4c(c5ccc(OC)cc5c3O2)-c2ccccc2C4(C)C)cc1` [Formula (D), reference compound], the “23°C color optical density (-)” value in data set [1] (setting [16]) is recorded as 0.69 -; in data set [1] (setting [17]) it was 0.87 -. Also, the “Temperature change rate (%)” value in data set [2] (photochromic laminate by coating method, comparative compounds, corresponds to A35/A23×100) is recorded as 63%. For the same compound, the results for the “A35/A23 *100” value in data set [2] (absorption band at 449 nm) and in data set [2] (absorption band at 569 nm) were 64% and 63%, respectively. Moreover, the “35°C color optical density (-)” value is 0.44 - in data set [3] (setting [16]) and 0.55 - in data set [3] (setting [17]). The “Maximum absorption wavelength (nm)” value is given as 449 nm in data set [4] (photochromic laminate by coating method, 40 µm photochromic layer on thiourethane lens, 0.25 mmol compound per 100 g monomers, absorption band at 449 nm) and 569 nm in data set [4] (photochromic laminate by coating method, 40 µm photochromic layer on thiourethane lens, 0.25 mmol compound per 100 g monomers, absorption band at 569 nm). Also, the Maximum absorption wavelength in data set [4] (absorption band at 449 nm) was 449 nm; in data set [4] (absorption band at 569 nm), 569 nm. Further, the results for the “Residual rate (%)” value in data set [5] (setting [16]) and in data set [5] (setting [17]) were 74% and 73%, respectively. Besides, the Residual rate in data set [5] (absorption band at 449 nm) turned out to be 74%; in data set [5] (absorption band at 569 nm) it was 73%.

On to `COc1ccc(C2(c3ccc(OC)cc3)C=Cc3c4c(c5cc(N(c6ccccc6)c6ccccc6)c(OC)cc5c3O2)-c2ccccc2C4(C)C)cc1` [Example 2 Formula (30)], for which the “A23 (-)” value in data set [1] (binder sheet (binder method)) is 1.52 -; in data set [1] (setting [14]), 1.51 -; in data set [1] (setting [6]) it was 1.49 -. Besides, the “A35/A23 *100 (%)” value in data set [2] (binder sheet (binder method)) is listed as 70%; in data set [2] (setting [14]), 71%; in data set [2] (setting [7]), 70%. Besides, the “A35 (-)” value is reported as 1.07 - in data set [3] (binder sheet (binder method)), 1.07 - in data set [3] (setting [14]) and 1.05 - in data set [3] (setting [7]). Besides, the “Maximum absorption wavelength (nm)” value in data set [4] (setting [13]) worked out at 510 nm; in data set [4] (setting [15]), 514 nm; in data set [4] (setting [8]), 510 nm. In addition, the figures for the “Residual rate (%)” value in data set [5] (binder sheet (binder method)), in data set [5] (setting [14]) and in data set [5] (setting [7]) were 94%, 88% and 82%, respectively.
